Source: PubChem BioAssay AID1259407 (Chemical Carcinogenesis Research Information System (CCRIS), 2018)
Calls of active or inactive are those of the source. No rule for the calls is given here.

Test system: CCRIS mutagenicity, Ames/micronucleus/aberration tests
Experiment: CCRIS mutagenicity studies
[1] = Test System: AMES SALMONELLA TYPHIMURIUM, Strain/Indicator: TA98, Metabolic Activation: NONE, Method: STANDARD PLATE
[2] = Test System: AMES SALMONELLA TYPHIMURIUM, Strain/Indicator: TA100, Metabolic Activation: NONE, Method: STANDARD PLATE
[3] = Test System: AMES SALMONELLA TYPHIMURIUM, Strain/Indicator: TA98, Metabolic Activation: NONE, Method: PREINCUBATION
[4] = Test System: AMES SALMONELLA TYPHIMURIUM, Strain/Indicator: TA100, Metabolic Activation: NONE, Method: PREINCUBATION

Q: What does the source list for `ICI`?
A: mutagenic call (Test System: AMES SALMONELLA TYPHIMURIUM, Strain/Indicator: TA102, Metabolic Activation: NONE, Method: STANDARD PLATE): inactive; negative; mutagenic call (Test System: AMES SALMONELLA TYPHIMURIUM, Strain/Indicator: TA2638, Metabolic Activation: NONE, Method: STANDARD PLATE): inactive; negative; mutagenic call (Test System: E. COLI, Strain/Indicator: WP2 (PKM101), Metabolic Activation: NONE, Method: STANDARD PLATE): inactive; negative; mutagenic call (Test System: E. COLI, Strain/Indicator: WP2 UVRA (PKM101), Metabolic Activation: NONE, Method: STANDARD PLATE): active; positive

Q: What does the source list for `COC(=O)c1cc2ccc3ccc[n+](C)c3c2[nH]1`?
A: mutagenic call [1]: inactive; negative; mutagenic call (Test System: E. COLI, Strain/Indicator: WP2 TM9, Metabolic Activation: NONE, Method: STANDARD PLATE): inactive; negative

Q: Which results are given for `C/C=C(/C(=C/C)c1ccc(O)cc1)c1ccc(O)cc1`?
A: mutagenic call (End Point: IN VITRO CHROMOSOMAL ABERRATIONS, Test System: CHINESE HAMSTER CELL DON (22;XY), Metabolic Activation: NONE): active; positive (ploidy changes); mutagenic call [1]: inactive; negative; mutagenic call (Test System: AMES SALMONELLA TYPHIMURIUM, Strain/Indicator: TA98, Metabolic Activation: RAT, LIVER, S-9, Method: STANDARD PLATE): inactive; negative; mutagenic call [2]: inactive; negative; toxicity at 100 ug/plate; mutagenic call (Test System: AMES SALMONELLA TYPHIMURIUM, Strain/Indicator: TA100, Metabolic Activation: RAT, LIVER, S-9, Method: STANDARD PLATE): inactive; negative; toxicity at 100 ug/plate; mutagenic call (Test System: AMES SALMONELLA TYPHIMURIUM, Strain/Indicator: TA1535, Metabolic Activation: NONE, Method: STANDARD PLATE): inactive; negative; toxicity at 50 ug/plate; mutagenic call (Test System: AMES SALMONELLA TYPHIMURIUM, Strain/Indicator: TA1535, Metabolic Activation: RAT, LIVER, S-9, Method: STANDARD PLATE): inactive; negative; toxicity at 100 ug/plate; mutagenic call (Test System: AMES SALMONELLA TYPHIMURIUM, Strain/Indicator: TA1537, Metabolic Activation: NONE, Method: STANDARD PLATE): inactive; negative; mutagenic call (Test System: AMES SALMONELLA TYPHIMURIUM, Strain/Indicator: TA1537, Metabolic Activation: RAT, LIVER, S-9, Method: STANDARD PLATE): inactive; negative; mutagenic call (Test System: AMES SALMONELLA TYPHIMURIUM, Strain/Indicator: TA1538, Metabolic Activation: NONE, Method: STANDARD PLATE): inactive; negative; mutagenic call (Test System: AMES SALMONELLA TYPHIMURIUM, Strain/Indicator: TA1538, Metabolic Activation: RAT, LIVER, S-9, Method: STANDARD PLATE): inactive; negative; toxicity at 100 ug/plate

Q: `O=NN1CCSC1C(O)C(O)C(O)C(O)CO` (centres undefined) was tested. Which mutagenic call [3] did it give?
A: inactive; negative

Q: And the mutagenic call [1]?
A: inactive; negative

Q: What about the mutagenic call (Test System: AMES SALMONELLA TYPHIMURIUM, Strain/Indicator: TA98, Metabolic Activation: RAT, LIVER, S-9, AROCLOR 1254, Method: PREINCUBATION) of the same compound?
A: inactive; negative

Q: And the mutagenic call (Test System: AMES SALMONELLA TYPHIMURIUM, Strain/Indicator: TA98, Metabolic Activation: RAT, LIVER, S-9, AROCLOR 1254, Method: STANDARD PLATE)?
A: inactive; negative

Q: And the mutagenic call [4]?
A: active; positive

Q: And the mutagenic call [2]?
A: active; positive

Q: What about the mutagenic call (Test System: AMES SALMONELLA TYPHIMURIUM, Strain/Indicator: TA100, Metabolic Activation: RAT, LIVER, S-9, AROCLOR 1254, Method: PREINCUBATION) of the same compound?
A: active; positive

Q: And the mutagenic call (Test System: AMES SALMONELLA TYPHIMURIUM, Strain/Indicator: TA100, Metabolic Activation: RAT, LIVER, S-9, AROCLOR 1254, Method: STANDARD PLATE)?
A: active; positive

Q: With `Cc1c(N=O)cccc1[N+](=O)[O-]` as the compound, how does the mutagenic call [3] read?
A: inactive; negative

Q: And the mutagenic call (Test System: AMES SALMONELLA TYPHIMURIUM, Strain/Indicator: TA98, Metabolic Activation: RAT, LIVER, S-9, PHENOBARBITAL AND 5,6-BENZOFLAVONE, Method: PREINCUBATION)?
A: inactive; negative

Q: And the mutagenic call [4]?
A: inactive; negative

Q: What about the mutagenic call (Test System: AMES SALMONELLA TYPHIMURIUM, Strain/Indicator: TA100, Metabolic Activation: RAT, LIVER, S-9, PHENOBARBITAL AND 5,6-BENZOFLAVONE, Method: PREINCUBATION) of the same compound?
A: inactive; negative
